Source: patent publication US20100189802A1, “Method for treatment of vascular hyperpermeability” (Scott and White Memorial Hospital and Scott, Sherwood, and …, priority 2007, published 2010)

B1: Angiopoietin-1: an endothelial cell growth factor (protein, UniProt Q15389 16-498, looked up)
Angiopoietin-1: HIGCSNQRRSPENSGRRYNRIQHGQCAYTFILPEHDGNCRESTTDQYNTNALQRDAPHVEPDFSSQKLQHLEHVMENYTQWLQKLENYIVENMKSEMAQIQQNAVQNHTATMLEIGTSLLSQTAEQTRKLTDVETQVLNQTSRLEIQLLENSLSTYKLEKQLLQQTNEILKIHEKNSLLEHKILEMEGKHKEELDTLKEEKENLQGLVTRQTYIIQELEKQLNRATTNNSVLQKQQLELMDTVHNLVNLCTKEGVLLKGGKREEEKPFRDCADVYQAGFNKSGIYTIYINNMPEPKKVFCNMDVNGGGWTVIQHREDGSLDFQRGWKEYKMGFGNPSGEYWLGNEFIFAITSQRQYMLRIELMDWEGNRAYSQYDRFHIGNEKQNYRLYLKGHTGTAGKQSSLILHGADFSTKDADNDNCMCKCALMLTGGWWFDACGPSNLNGMFYTAGQNHGKLNGIKWHYFKGPSYSLRSTTMMIRPLDF

Tests used:
Sprague-Dawley rats = assay: Hemorrhagic shock-induced vascular hyperpermeability: FITC-albumin flux in mesenteric postcapillary venules by intravital microscopy; type: in vivo, rat
Text: For example, in an embodiment of the invention disclosed herein, Sprague-Dawley rats were anesthetized with urethane. Hemorrhagic shock was induced in the anesthetized rats by withdrawing blood to reduce the mean arterial pressure to 40 mm Hg for one hour. The rats were then resuscitated to 90 mmHg by administration of the shed blood and normal saline. Albumin labeled with fluorescein isothiocyanate (FITC) was given intravenously during the period in which shock was present. The mesenteric postcapillary venules in a transilluminated segment of small intestine were examined to quantitate changes in albumin flux using intravital microscopy.

endothelial cells = conditions: traumatized animals, hemorrhagic shock; Childs et al. 2008; cited from earlier work

Molecule | vascular hyperpermeability induced by hemorrhagic shock-induced apoptosis (Sprague-Dawley rats; alpha-lipoic acid administered to traumatized animals) | vascular hyperpermeability (Sprague-Dawley rats; alpha-lipoic acid, about 100 mg/kg, before the onset of hemorrhagic shock) | vascular hyperpermeability (Sprague-Dawley rats; alpha-lipoic acid, about 100 mg/kg, within 60 minutes after the development of hemorrhagic shock) | vascular hyperpermeability and apoptosis (endothelial cells) | vascular hyperpermeability (Sprague-Dawley rats; angiopoietin-1 intravenously, 200 ng/ml, traumatized animals)
O=C(O)CCCCC1CCSS1 (stereo not drawn) [Alpha-lipoic acid, alpha-lipoic acid] | attenuated the amount of vascular hyperpermeability | effective in reducing the amount of vascular hyperpermeability | effective in reducing the amount of vascular hyperpermeability | – | –
B1 | – | – | – | potent inhibitor of vascular hyperpermeability and apoptosis | attenuated the amount of vascular hyperpermeability
